In patent publication US20030104393A1, “Blood assessment of injury” (priority 2000, published 2003):

Legend:
brain = assay: Genes induced in the brain following kainic acid-induced seizures (microarray); assay type: in vivo, rat; parameters: key: NC = No Change
Method: (§1) Status epilepticus is produced by intraperitoneally injecting a glutamate analogue/excitotoxin, kainic acid (10 mg/kg i.p.). Animals with kainate-induced seizures are observed following drug administration to ensure that they continue to have complex seizures over a 30 minute period.
All animals are allowed to survive for 24 hours following each treatment. At that time they are deeply anesthetized with ketamine (100 mg/kg) and xylazine (20 mg/kg) given intraperitoneally. Once anesthetized, the chest is opened and a direct cardiac puncture performed with a syringe and 10 cc of blood is aspirated. Immediately following removal of the blood, the animal is decapitated while deeply anesthetized and the brain removed.
One day after hypoxia, status epilepticus, hypoglycemia, ischemic stroke, and hemorrhagic stroke are produced in adult rats, RNA or protein is isolated from the blood cells and from the brains of the animals described in Example 1. The pattern of genes or proteins expressed in the blood cells following each of these types of injury—hypoxia, status epilepticus, hypoglycemia, ischemic stroke, and hemorrhagic stroke is captured on a commercially available microarray (Affymetrix chip). The pattern of gene or protein expression is defined using an expression method, which then forms a genomic or proteomic organ injury database, which is used in assessing injury.
Note that the genes induced in the blood are different from the genes induced in the brain. Therefore, different organs express different genes. In addition, the genes induced by hypoxia in the blood are different from the genes induced by hypoxia in the brain. That is, the same stimulus induces different genes in different organs. Lastly, even though similar genes are induced in the brain by ischemia (stroke) and kainic acid-induced seizures, there are many differences in the gene expression between the two. Therefore, the pattern of gene expression in the brains of ischemic animals is distinctive from the pattern of expression of the kainate animals, and this pattern can be used to diagnose the different conditions of stroke and status epilepticus, even though many of the same genes are induced in the two conditions.
In further support, the following Tables 5 and 6 list those genes induced in the brain following stroke, kainic induced seizures, and hypoxia as compared with untouched controls and sham-operated controls.

neurons = assay: Status epilepticus produced by kainic acid: neuronal injury; assay type: in vivo, rat; conditions: kainic acid 10 mg/kg i.p., 24 hours later
Method: as §1

C=C(C)[C@H]1CN[C@H](C(=O)O)[C@H]1CC(=O)O [kainate, kainic acid]
Kainic Acid Seizure (fold change) (brain; brain, D29769_at bone morphogenic protein-7): NC
Kainic Acid Seizure (fold change) (brain; brain, J03624_at Rat galanin (a neuropeptide) RNA): 3 fold change
Kainic Acid Seizure (fold change) (brain; brain, L20913_s_at vascular endothelial growth factor form 3 RNA): NC
Kainic Acid Seizure (fold change) (brain; brain, L32591RNA_g GADD45 RNA): 3 fold change
Kainic Acid Seizure (fold change) (brain; brain, L46593cds_at small proline-rich protein (spr) gene): 4 fold change
Kainic Acid Seizure (fold change) (brain; brain, M55534RNA_s Rat alpha-crystallin b chain RNA): 2 fold change
Kainic Acid Seizure (fold change) (brain; brain, M60616_at Rat collagenase (UMRCase) RNA): NC
Kainic Acid Seizure (fold change) (brain; brain, M63282_at Rat leucine zipper protein RNA): NC
Kainic Acid Seizure (fold change) (brain; brain, M90661_at Rattus norvegicus insulin receptor-related receptor-alpha subunit RNA): NC
Kainic Acid Seizure (fold change) (brain; brain, RC_AA891041 EST): NC
Kainic Acid Seizure (fold change) (brain; brain, U13396_at protein-tyrosine kinase (JAK2) RNA): NC
Kainic Acid Seizure (fold change) (brain; brain, U16674_at interleukin-12p40 RNA): NC
Kainic Acid Seizure (fold change) (brain; brain, U49930_g_at ICE-like cysteine protease (Lice) RNA): 2.7 fold change
Kainic Acid Seizure (fold change) (brain; brain, U77829RNA_s Rattus norvegicus gas-5 growth arrest homolog NCn-translated RNA sequence): 3.4 fold change
Kainic Acid Seizure (fold change) (brain; brain, U88572_at AMPA receptor interacting protein GRIP RNA): 3.5 fold change
Kainic Acid Seizure (fold change) (brain; brain, U099870_at Vmajor vault protein RNA): 2.5 fold change
Kainic Acid Seizure (fold change) (brain; brain, Y10619cds_at transcriptional regulator, Relax): 3.5 fold change
Kainic Acid Seizure (fold change) (brain; brain, a30543cds_s_ p-Meta-a RNA for CD44 surface protein from patent WO9117248): 4.4 fold change
Kainic Acid Seizure (fold change) (brain; brain, ab005900_at endothelial receptor for oxidized low density): NC
Kainic Acid Seizure (fold change) (brain; brain, af00898_at p58/p45 RNA, alternatively spliced form clone H): 3.3 fold change
Kainic Acid Seizure (fold change) (brain; brain, af28784cds# glial fibrillary acidic proteins alpha and delta (GFAP) gene): 6.2 fold change
Kainic Acid Seizure (fold change) (brain; brain, af030089UTR# Rattus norvegicus activity and neurotransmitter-induced early gene): 4 fold change
Kainic Acid Seizure (fold change) (brain; brain, af036537_at homocysteine respondent protein): NC
Kainic Acid Seizure (fold change) (brain; brain, af036537 homocysteine respondent protein HCYP2 RNA): NC
Kainic Acid Seizure (fold change) (brain; brain, af053362_at Rattus norvegicus death effector domain-containing protein DEFT RNA): NC
Kainic Acid Seizure (fold change) (brain; brain, af074608RNA MHC class I antigen (RT1.EC2) gene): 3 fold change
Kainic Acid Seizure (fold change) (brain; brain, af083269_at p41-Arc RNA): 3.3 fold change
Kainic Acid Seizure (fold change) (brain; brain, af083269_g_at p41-Arc RNA): 3.3 fold change
Kainic Acid Seizure (fold change) (brain; brain, af086624_s_a serine threonine kinase (pim-3) RNA): NC
Kainic Acid Seizure (fold change) (brain; brain, af087944RNA monocyte differentiation antigen CD14 gene): 2.6 fold change
Kainic Acid Seizure (fold change) (brain; brain, af092090_at cp151 RNA): 2.7 fold change
Kainic Acid Seizure (fold change) (brain; brain, aj222813_s_a precursor interleukin 18 (IL-18)): 3.8 fold change
Kainic Acid Seizure (fold change) (brain; brain, d00913_g_at intercellular adhesion molecule-1): NC
Kainic Acid Seizure (fold change) (brain; brain, d8557s_at RYB-a): 3.5 fold change
Kainic Acid Seizure (fold change) (brain; brain, d17370_g_at cystathionine gamma-lyase): 3.8 fold change
Kainic Acid Seizure (fold change) (brain; brain, d89069_f_at inducible carbonyl reductase): NC
Kainic Acid Seizure (fold change) (brain; brain, d90404_at cathepsin C): 2.8 fold change
Kainic Acid Seizure (fold change) (brain; brain, d90404_g_at cathepsin C): NC
Kainic Acid Seizure (fold change) (brain; brain, j00780_at rat preprorelaxin RNA): NC
Kainic Acid Seizure (fold change) (brain; brain, j04563_at Rat cAMP phosphodiesterase RNA): 5.4 fold change
Kainic Acid Seizure (fold change) (brain; brain; j04792_at ornithine decarboxylase ODC) gene): 1.7 fold change
Kainic Acid Seizure (fold change) (brain; brain, m13979_at Rat brain and all other organ glucose-transporter protein RNA): 2.1 fold change
Kainic Acid Seizure (fold change) (brain; brain, m18330_at Rat protein kinase C delta subspecies): 3.3 fold change
Kainic Acid Seizure (fold change) (brain; brain, m19257_at Rat cysosolic retinol-binding protein (CRBP) RNA): 4 fold change
Kainic Acid Seizure (fold change) (brain; brain, m32062_at Rat Fc-gamma receptor RNA): 1.5 fold change
Kainic Acid Seizure (fold change) (brain; brain, m34253_g_at Rat-interferon regulatory factor1 (IRF-a) RNA): 3 fold change
Kainic Acid Seizure (fold change) (brain; brain, m60753_s_at catechol-O-methyltransferase RNA): 4.5 fold change
Kainic Acid Seizure (fold change) (brain; brain, m63122_at Rat tumor necrosis factor receptor (TNF receptor)): 2.8 fold change
Kainic Acid Seizure (fold change) (brain; brain, m80633_at Rat adenylyl cyclase type (IV) RNA): 5.2 fold change
Kainic Acid Seizure (fold change) (brain; brain, rc_A1014163 EST): 2.3 fold change
Kainic Acid Seizure (fold change) (brain; brain, rc_aa799323— EST): NC
Kainic Acid Seizure (fold change) (brain; brain, rc_aa799448 EST): NC
Kainic Acid Seizure (fold change) (brain; brain, rc_aa799686 EST): 6.3 fold change
Kainic Acid Seizure (fold change) (brain; brain, rc_aa799773 EST): 4.7 fold change
Kainic Acid Seizure (fold change) (brain; brain, rc_aa800701 EST): NC
Kainic Acid Seizure (fold change) (brain; brain, rc_aa800962 EST): NC
Kainic Acid Seizure (fold change) (brain; brain, rc_aa866443 EST): NC
Kainic Acid Seizure (fold change) (brain; brain, rc_aa875032 EST): NC
Kainic Acid Seizure (fold change) (brain; brain, rc_aa875126 EST): 8.7 fold change
Kainic Acid Seizure (fold change) (brain; brain, rc_aa891576 EST): NC
Kainic Acid Seizure (fold change) (brain; brain, rc_aa892750 EST): NC
Kainic Acid Seizure (fold change) (brain; brain, rc_aa892775 EST): 2.3 fold change
Kainic Acid Seizure (fold change) (brain; brain, rc_aa892851 EST): NC
Kainic Acid Seizure (fold change) (brain; brain, rc_aa900476 EST): NC
Kainic Acid Seizure (fold change) (brain; brain, rc_aa926129_ EST): 4.9 fold change
Kainic Acid Seizure (fold change) (brain; brain, rc_aa945737 EST): NC
Kainic Acid Seizure (fold change) (brain; brain, rc_aa946044 EST): 2.8 fold change
Kainic Acid Seizure (fold change) (brain; brain, rc_ai6i39302 EST): NC
Kainic Acid Seizure (fold change) (brain; brain, rc_ai070295 EST): 1.9 fold change
Kainic Acid Seizure (fold change) (brain; brain, rc_ai71962 EST): 1.9 fold change
Kainic Acid Seizure (fold change) (brain; brain, rc_ai169756 EST): 1.7 fold change
Kainic Acid Seizure (fold change) (brain; brain, rc_ai171966 EST): 3.8 fold change
Kainic Acid Seizure (fold change) (brain; brain, rc_ai176456 EST): 2.3 fold change
Kainic Acid Seizure (fold change) (brain; brain, rc_ai233219 EST): NC
Kainic Acid Seizure (fold change) (brain; brain, rc_ai638945 EST): NC
Kainic Acid Seizure (fold change) (brain; brain, rc_ai639042): NC
Kainic Acid Seizure (fold change) (brain; brain, rc_ai639161 EST): 7.5 fold change
Kainic Acid Seizure (fold change) (brain; brain, rc_ai639233 EST): NC
Kainic Acid Seizure (fold change) (brain; brain, rc_ai639372_ EST): NC
Kainic Acid Seizure (fold change) (brain; brain, rc_ai639402 EST): NC
Kainic Acid Seizure (fold change) (brain; brain, rc_ai639457 EST): NC
Kainic Acid Seizure (fold change) (brain; brain, s77494_s_at lysyl oxidase {3Nuntranslated region} [rats, aorta smooth muscle cell): NC
Kainic Acid Seizure (fold change) (brain; brain, s82649_s_at Narp = neuronal activity-regulated pentraxin): 2.2 fold change
Kainic Acid Seizure (fold change) (brain; brain, u04835_at CREMdeltaC—G gene): 2.1 fold change
Kainic Acid Seizure (fold change) (brain; brain, u05014_at Rattus norvegicus Sprague/Dawley PHAS-a): 3.9 fold change
Kainic Acid Seizure (fold change) (brain; brain, u23407_at Rattus norvegicus cellular retinoic acid-binding protein II (CRABP II) RNA): 9.2 fold change
Kainic Acid Seizure (fold change) (brain; brain, u33500_g_at retinol dehydrogenase type II RNA): NC
Kainic Acid Seizure (fold change) (brain; brain, u78102_at krox20 RNA): NC
Kainic Acid Seizure (fold change) (brain; brain, x54686cds_at pJunB gene): NC
Kainic Acid Seizure (fold change) (brain; brain, x60351cds_s alpha B-crystallin): 2.4 fold change
Kainic Acid Seizure (fold change) (brain; brain, x62951RNA_s R. norvegicus RNA (pBUS19) with repetitive): NC
Kainic Acid Seizure (fold change) (brain; brain, x63434_at R. norvegicus RNA for urokinase-type plasminogen activator): NC
Kainic Acid Seizure (fold change) (brain; brain, x63594cds_g_ RL/IF-1 RNA): NC
Kainic Acid Seizure (fold change) (brain; brain, x71127_at complement protein C1q beta): 2.7 fold change
Kainic Acid Seizure (fold change) (brain; brain, x71127_s_at complement protein C1q beta chain): 3.6 fold change
Kainic Acid Seizure (fold change) (brain; brain, x74565cds_g_ TBFII RNA for polypyrimidine tract binding): 5.4 fold change
Kainic Acid Seizure (fold change) (brain; brain, x95986RNA#1 CBR gene): NC
Kainic Acid Seizure (fold change) (brain; brain, x98377_at RNA for emerin): NC
Kainic Acid Seizure (fold change) (brain; brain, x99121RNA#1 RT6 gene, exon 2, testis): NC
Kainic Acid Seizure (fold change) (brain; brain, z22812_at interleukin-1 receptor type 2): NC
Neuronal injury (neurons): diffuse neuronal injury
